We go through two compounds from paper PMC12715762, “Discovery of VU6052254: A Novel, Potent M1 Positive Allosteric Modulator” (ACS Chemical Neuroscience, 2025).

Numbering of substitutions follows the chain as printed. pEC50, pIC50: −log10 of the molar value. ≈ marks a conversion by molar mass, not a printed value. Like-named read-outs stand apart in the source and are kept apart here. Where only a bound is given, the exact number is not on record here.

One data set has as its system rM2-5. The experiment in a line: muscarinic selectivity calcium mobilization (rat M2-5). Type of data set: cell-based.
Data set [1] is described as follows: solubility in simulated intestinal fluid (FaSSIF). It counts as physicochemical.
Data set [2] is described as follows: solubility in simulated gastric fluid (FaSSGF). Type of data set: physicochemical. To be noted: fassgf or other biorelevant.
For the next data set, the target named is CYP 1A2 (Homo sapiens, UniProt P05177). The experiment in a line: CYP450 inhibition. Type of data set: in vitro ADME.
A further data set addresses T1, human M1 (Homo sapiens, UniProt P11229).
T1 sequence (P11229 1-460): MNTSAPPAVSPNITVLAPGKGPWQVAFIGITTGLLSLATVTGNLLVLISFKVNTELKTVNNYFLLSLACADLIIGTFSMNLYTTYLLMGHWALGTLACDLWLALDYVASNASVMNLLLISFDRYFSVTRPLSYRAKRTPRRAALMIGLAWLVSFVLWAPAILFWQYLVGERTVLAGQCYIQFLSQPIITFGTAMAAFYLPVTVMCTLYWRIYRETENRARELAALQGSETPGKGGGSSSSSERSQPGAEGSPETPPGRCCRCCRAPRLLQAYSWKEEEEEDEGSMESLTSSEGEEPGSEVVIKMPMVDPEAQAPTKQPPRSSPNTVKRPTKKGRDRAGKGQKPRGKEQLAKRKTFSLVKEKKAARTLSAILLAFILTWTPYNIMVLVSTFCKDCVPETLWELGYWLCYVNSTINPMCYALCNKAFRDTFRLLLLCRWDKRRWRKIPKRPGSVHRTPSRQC
The experiment in a line: M1 agonist calcium mobilization assay (human). Type of data set: cell-based. The note with it: for hM1 Agonist AChmax (%): human M1, % ACh max, n = 9. Here is the method:
Procedures for Biological Experiments
Calcium mobilization assays:
All functional cell-based assays were performed in stable Chinese Hamster Ovary (CHO) cell lines constitutively expressing human M5 or human M1 receptors. For full muscarinic selectivity, CHO cells expressing human M3, human M2 plus Gqi5 or human M4 plus Gqi5 were used. Cells were plated at 15,000 cells per 20 µL per well in black 384-well, TC-treated, clear-bottomed plates (Greiner) in Ham’s F12 medium supplemented with 10% FBS and 20 mM HEPES. Cells were incubated overnight at 37 °C under 5% CO2. The following day, the medium was removed and replaced with 1.2 µM Fluo-4 AM (Invitrogen) in assay buffer (Hank’s Balanced Salt Solution supplemented with 20 mM HEPES and 2.5 mM Probenecid, pH 7.4) and the cells were incubated for 50 minutes at 37 °C under 5% CO2. Dye was then removed and replaced with 20 µL of fresh assay buffer. Test compounds at a 10 mM concentration in DMSO were serially diluted in DMSO (either 1:3 or 1:5 dilution) to create a 10-point concentration series. The DMSO solutions were then diluted in assay buffer resulting in compound solutions at 2-times the final assay concentration with the highest assay concentration of 30 µM. The compound plate, cell plate, and plates containing EC20 and EC80 acetylcholine concentrations were placed in a Hamamatsu FDSS 6000 or 7000 kinetic imaging plate reader equipped to measure Ex480/Em540 fluorescence. Data were collected at 1 frame per second. After 2 seconds of collecting baseline fluorescence, 20 µL of the compound solutions were added to the cell plate. This was followed by the addition of an EC20 concentration of acetylcholine at 142 seconds. […] The fluorescence signal was collected for a total of 300 seconds. […] Data were imported and analyzed in Dotmatics Informatics software. by normalizing all data in the individual kinetic traces to the initial fluorescence read. The magnitude of each agonist addition was then determined and normalized to the average maximum response. […] The IC50 determined using the EC80 of acetylcholine is the value reported. […]

A further data set addresses T2, rat M1 (Rattus norvegicus, UniProt P08482).
T2 construct: expressed in transfected cells
T2 sequence (P08482 1-460): T1 sequence (P11229 1-460) with A5V, T254S, P309S, R320K, A337G, I413V
The experiment in a line: M1 PAM calcium mobilization assay (rat). Type of data set: cell-based. The note with it: for rM1 PAM AChmax (%): rat M1, % ACh max, n = 5; for pEC50: rat M1, n = 5, read-out: rM1 PAM EC50.

Data set [3] is described as follows: kinetic / aqueous solubility. It counts as physicochemical. To be noted: for solubility kinetic: aqueous medium, kinetic from dmso stock.
Another data set concerns the target T3, P-gp (MDR1) (Homo sapiens, UniProt P08183).
T3 construct: host or cells: MDR1-MDCK cell monolayers
Kind of data set: MDCK-MDR1 permeability and efflux. Further details: Papp at 2 h / efflux ratio at 2 h: dose or concentration left out as unconfirmed. To be noted: dog; for efflux ratio at 2 h: MDCK-MDR1 efflux ratio, read-out: P-gp ER. It counts as in vitro ADME. On the procedure:
(§1) min, with an isocratic hold for 0.5 min, before transitioning to 10% B over 0.05 min. The column was re-equilibrated (1 min) before the next sample injection. The total run time was 2.55 min, and the HPLC flow rate was 0.5 ml/min. The source temperature was set at 500 °C, and mass spectral analyses were performed using a Turbo-Ion spray source in positive ionization mode (5.0-kV spray voltage) and using multiple-reaction monitoring of transitions specific for the analytes. All data were analyzed using AB Sciex Analyst 1.5.1 software. […]
(§2) In-vitro determination of blood-brain barrier penetration potential
(§3) Blood-brain barrier penetration was determined using MDR1-MDCK cell monolayers by Absorption Systems, following their protocol. In short, compounds were incubated at […] final concentration on one side of the cell monolayer for 2 hours. Compounds concentration on either side of the monolayer was determined by LC-MS/MS and apparent permeability and efflux ratio

Another data set has as its target T4, MDCK-MDR1 (P-gp) (Homo sapiens, UniProt P08183).
T4 construct: host or cells: MDR1-MDCK cell monolayers
Kind of data set: MDCK-MDR1 permeability and efflux. On the set-up: Papp at 2 h / efflux ratio at 2 h: dose or concentration left out as unconfirmed. It counts as in vitro ADME. To be noted: MDCK-MDR1. Here is the method:
as §1, §2, §3

The mark [4] stands for this setting: pH 2.2, pH 2.2, aqueous buffer, read-out: Kinetic solubility (pH = 2.2).
Where [5] appears, read: pH 6.8, pH 6.8, aqueous buffer, read-out: Kinetic solubility (pH = 6.8).

T3 sequence (P08183 whole entry): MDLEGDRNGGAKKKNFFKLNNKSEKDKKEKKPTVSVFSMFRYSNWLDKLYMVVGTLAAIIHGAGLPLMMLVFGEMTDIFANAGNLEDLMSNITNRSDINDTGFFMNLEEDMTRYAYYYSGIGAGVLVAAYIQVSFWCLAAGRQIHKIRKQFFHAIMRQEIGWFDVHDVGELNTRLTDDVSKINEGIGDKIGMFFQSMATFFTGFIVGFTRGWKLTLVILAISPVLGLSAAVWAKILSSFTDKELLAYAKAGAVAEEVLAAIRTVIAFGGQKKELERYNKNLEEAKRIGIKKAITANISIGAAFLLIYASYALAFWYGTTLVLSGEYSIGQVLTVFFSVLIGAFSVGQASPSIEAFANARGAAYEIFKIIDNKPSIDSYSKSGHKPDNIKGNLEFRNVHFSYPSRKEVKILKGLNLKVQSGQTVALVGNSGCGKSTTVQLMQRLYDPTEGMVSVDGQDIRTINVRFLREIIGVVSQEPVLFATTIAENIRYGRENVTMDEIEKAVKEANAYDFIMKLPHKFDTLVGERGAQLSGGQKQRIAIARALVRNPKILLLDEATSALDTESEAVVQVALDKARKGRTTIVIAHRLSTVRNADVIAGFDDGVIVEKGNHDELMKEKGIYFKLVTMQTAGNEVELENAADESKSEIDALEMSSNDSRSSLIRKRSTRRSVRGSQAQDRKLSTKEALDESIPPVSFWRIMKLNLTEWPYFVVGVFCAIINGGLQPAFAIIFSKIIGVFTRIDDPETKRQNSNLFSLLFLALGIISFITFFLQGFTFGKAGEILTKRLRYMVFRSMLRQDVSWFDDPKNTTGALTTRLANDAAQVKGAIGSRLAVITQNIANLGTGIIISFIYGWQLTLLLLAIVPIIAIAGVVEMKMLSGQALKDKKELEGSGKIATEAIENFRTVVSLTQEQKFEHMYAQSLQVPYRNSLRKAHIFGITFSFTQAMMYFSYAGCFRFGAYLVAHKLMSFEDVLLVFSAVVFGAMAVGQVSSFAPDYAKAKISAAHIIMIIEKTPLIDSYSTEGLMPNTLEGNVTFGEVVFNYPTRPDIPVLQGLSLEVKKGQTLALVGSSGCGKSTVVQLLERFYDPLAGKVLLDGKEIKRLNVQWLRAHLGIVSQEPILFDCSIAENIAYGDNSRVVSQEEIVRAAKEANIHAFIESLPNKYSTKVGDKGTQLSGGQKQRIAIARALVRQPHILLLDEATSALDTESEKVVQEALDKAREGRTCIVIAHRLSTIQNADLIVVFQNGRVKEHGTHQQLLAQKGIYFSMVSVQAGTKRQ
Chain of CYP 1A2 (P05177 whole entry): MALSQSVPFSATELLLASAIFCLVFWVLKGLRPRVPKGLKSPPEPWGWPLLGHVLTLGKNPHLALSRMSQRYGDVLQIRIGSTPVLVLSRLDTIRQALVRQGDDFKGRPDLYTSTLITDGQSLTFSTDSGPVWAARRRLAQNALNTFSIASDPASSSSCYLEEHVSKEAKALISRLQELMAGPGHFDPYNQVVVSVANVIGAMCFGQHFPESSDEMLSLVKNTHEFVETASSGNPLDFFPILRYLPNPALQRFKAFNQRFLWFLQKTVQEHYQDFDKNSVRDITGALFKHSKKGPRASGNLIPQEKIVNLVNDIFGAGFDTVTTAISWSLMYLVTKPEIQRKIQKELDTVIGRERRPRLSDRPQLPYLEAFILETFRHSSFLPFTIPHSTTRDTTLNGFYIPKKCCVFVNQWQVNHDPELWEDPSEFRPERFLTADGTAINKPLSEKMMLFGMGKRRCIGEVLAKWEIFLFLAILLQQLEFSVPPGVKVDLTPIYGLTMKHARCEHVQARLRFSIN
T4 sequence (P08183 whole entry): as the sequence (P08183 whole entry) above

Turning to `Cn1cc2c(-c3cc(F)c(CN4Cc5ncccc5C4=O)c(F)c3)cccc2n1` [compound 1, reference compound], the pEC50 with rM2-5 was less than 4.52; on rat M1, 6.40. In addition, the solubility in data set [1] is 7 µg/mL (≈ 17.9 µM); in data set [2], 36 µg/mL (≈ 92.2 µM). The pIC50 at CYP 1A2 is 4.85. In addition, the “hM1 Agonist AChmax (%)” value on human M1 is 20%. For the same compound, the “rM1 PAM AChmax (%)” value on rat M1 is reported as 81%. For the same compound, the solubility (kinetic) in [3] (setting [4]) was 80.1 µM (≈ 31.3 µg/mL); in data set [3] (setting [5]) it was 9.75 µM (≈ 3.81 µg/mL). Also, the aqueous solubility entry in [3] (result in words) is given as “low aqueous solubility”. Also, the efflux ratio at 2 h at P-gp (MDR1) stood at 1.6. For the same compound, the apparent permeability coefficient (Papp) at MDCK-MDR1 (P-gp) turned out to be 31 ×10⁻⁶ cm/s.

On to `Cn1cc2c(-c3cc(F)c(CN4Cc5ncccc5C4=O)c(F)c3)ccc(C(C)(C)O)c2n1` [compound 7], for which the pEC50 is less than 4.52 in the data set with rM2-5; 5.44 at human M1 (human M1, n = 9, read-out: hM1 Agonist EC50); 7.11 at rat M1. Further, the solubility in data set [1] is 11 µg/mL (≈ 24.5 µM); in [2] it was 24.8 µg/mL (≈ 55.3 µM). The same compound had a negative logarithm of the IC50 (pIC50) against CYP 1A2 of less than 4.52. Also, the “hM1 Agonist AChmax (%)” value on human M1 came out at 22%. The “rM1 PAM AChmax (%)” value on rat M1 is 94%. The kinetic solubility amounted to 81.5 µM (≈ 36.6 µg/mL) in data set [3] (setting [4]) and 67.8 µM (≈ 30.4 µg/mL) in data set [3] (setting [5]). Moreover, the Papp at 2 h on P-gp (MDR1) (MDCK-MDR1, MDCK-MDR1) amounted to 23 ×10⁻⁶ cm/s. For the same compound, the efflux ratio at 2 h on P-gp (MDR1) came out at 1.97. Besides, the apparent permeability (Papp) on MDCK-MDR1 (P-gp) was 23.1 ×10⁻⁶ cm/s.
